{"source": "patent US9333178B2", "about": "“Essential oil microparticles and uses thereof for preventing enteric diseases” (Universidade Estadual de Campinas—UNICAMP, priority 2012, dated 2016)", "key": {"[1]": {"tested_on": "NCI-ADR/RES (ovary, with multidrug resistant phenotype)", "assay": "In vitro cytotoxicity, SRB assay", "type": "cell-based, human", "procedure": "(§1) The in vitro cytotoxicity of essential oils (present invention) were evaluated against two normal cell lines (VERO—African green monkey kidney epithelial cells and HaCat—immortal human keratinocytes) and against a panel of human tumor cells.\n(§2) Based on the results, growth rate graphics from the sample concentration for each of the tested strain were generated.\n(§3) The test results obtained are shown in FIG. 1 (present invention) and table 2. In this model, one way to infer the growth rate is by spectrophotometric reading of the absorbance of cellular proteins stained with sulforhodamine B (SRB), an anionic dye staining bright pink. This dye can bind to protein terminations of basic amino acids in living cells fixed with Trichloroacetic acid (TCA), thus being an independent assay of cell metabolism and allowing a sensitive measurement of protein linearly with the number of cells in culture.\n(§4) This test allows us to evaluate the antitumor activity through exposure of human tumor cells in exponential growth phase at different concentrations of the sample and whether that exposure led to an interruption in the growth rate without cell death ([…]) or caused the death cell (cytocidal activity). To measure the activity, an effective concentration called TGI (total growth inhibition, concentration required for 0% cell growth occurs) (Shoemaker, 2006) was calculated.\n(§5) Chemotherapy doxorubicin was used as positive control. In addition to a standard of comparison, the main purpose of using this control was to verify that all employed cell lines kept the profile of response to chemotherapy. This is because with successive passages necessary for the maintenance of cell culture, there is the possibility of changing the lineage in culture, and this mutation could be detected by the change in response against doxorubicin. Furthermore, in order to minimize the occurrence of mutations, the cell lines are perpetuated only by up to 20 passages, after which they are replaced by new cells of the same strain that were maintained frozen."}, "[2]": {"tested_on": "HaCat (keratinocyte, immortalized normal cell)", "assay": "In vitro cytotoxicity, SRB assay", "type": "cell-based, human", "settings": "normal cell line", "procedure": "as §1, §2, §3, §4, §5"}, "MCF-7 (breast)": {"tested_on": "MCF-7 (breast)", "assay": "In vitro cytotoxicity, SRB assay", "type": "cell-based, human", "procedure": "as §1, §2, §3, §4, §5"}, "[3]": {"tested_on": "NCI-H460 (lung, non-small cells)", "assay": "In vitro cytotoxicity, SRB assay", "type": "cell-based, human", "procedure": "as §1, §2, §3, §4, §5"}, "786-0 (kidney)": {"tested_on": "786-0 (kidney)", "assay": "In vitro cytotoxicity, SRB assay", "type": "cell-based, human", "procedure": "as §1, §2, §3, §4, §5"}, "U251 (glioma, CNS)": {"tested_on": "U251 (glioma, CNS)", "assay": "In vitro cytotoxicity, SRB assay", "type": "cell-based, human", "text": "Based on the results, growth rate graphics from the sample concentration for each of the tested strain were generated. Three effective concentrations called GI50 (growth inhibition, the concentration required to disrupt 50% cell growth), TGI (total growth inhibition, the concentration required for 0% of cell growth) and LC50 (lethal concentration, concentration required for 50% cell death) could be calculated by nonlinear regression, sigmoidal, using 8.0 Origin software.\nIn this model, one way to infer the growth rate is by spectrophotometric reading of the absorbance of cellular proteins stained with sulforhodamine B (SRB), an anionic dye staining bright pink. This dye can bind to protein terminations of basic amino acids in living cells fixed with Trichloroacetic acid (TCA), thus being an independent assay of cell metabolism and allowing a sensitive measurement of protein linearly with the number of cells in culture. […]"}, "[4]": {"tested_on": "panel of human tumor cells", "assay": "In vitro cytotoxicity, SRB assay, mean over tumor lines", "type": "cell-based", "settings": "arithmetic mean of the TGI values for tumor lines", "procedure": "as §1, §2\nas §3, with “culture. […]” for “culture.”\nChemotherapy doxorubicin was used as positive control. […] This is because with successive passages necessary for the maintenance of cell culture, there is the possibility of changing the lineage in culture, and this mutation could be detected by the change in response against doxorubicin. […]"}}}
{"smiles": "COc1cccc2c1C(=O)c1c(O)c3c(c(O)c1C2=O)C[C@@](O)(C(=O)CO)C[C@@H]3O[C@H]1C[C@H](N)[C@H](O)[C@H](C)O1", "note": "[Doxorubicin]", "values": [{"measurement": "TGI (Total Growth Inhibition)", "setting": "[1]", "value": ">25", "unit": "mg/L"}, {"measurement": "TGI (Total Growth Inhibition)", "setting": "[2]", "value": ">25", "unit": "mg/L"}, {"measurement": "TGI (Total Growth Inhibition)", "setting": "MCF-7 (breast)", "value": ">25", "unit": "mg/L"}, {"measurement": "TGI (Total Growth Inhibition)", "setting": "[3]", "value": ">25", "unit": "mg/L"}, {"measurement": "TGI (Total Growth Inhibition)", "setting": "786-0 (kidney)", "value": ">25", "unit": "mg/L"}, {"measurement": "TGI (Total Growth Inhibition)", "setting": "U251 (glioma, CNS)", "value": 1.24, "unit": "mg/L"}, {"measurement": "TGI Average", "setting": "[4]", "value": ">25", "unit": "mg/L"}]}
